The values below come from publication PMC9518245 (Journal of Enzyme Inhibition and Medicinal Chemistry, 2022).

Where two headings read alike, the source gives them in different places.

Data set [1] has as its target T1, FLAP (5-LOX product formation) (Homo sapiens, UniProt P20292).
T1 construct: Human neutrophils were isolated from buffy coats of healthy adult fasted donors; endogenous in cells; host or cells: primary human neutrophils from buffy coats
T1 sequence (P20292 1-161): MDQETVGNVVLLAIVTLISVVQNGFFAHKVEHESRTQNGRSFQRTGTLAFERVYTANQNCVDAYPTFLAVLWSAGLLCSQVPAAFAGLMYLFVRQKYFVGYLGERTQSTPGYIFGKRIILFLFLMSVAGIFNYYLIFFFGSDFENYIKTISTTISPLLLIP
In words: FLAP-dependent 5-LOX product formation in human neutrophils. As to conditions: for IC50: human neutrophils, A23187 stimulated, read-out: FLAP (5-LOX product formation) IC50 ± SEM. Type of data set: cell-based. The method, then: Human neutrophils were isolated from buffy coats of healthy adult fasted donors as described recently.[32] […] 200 ng of internal PGB1 standard was added to the acidified samples and solid-phase-extraction using C18 RP-columns (100 mg, UCT, Bristol, PA, USA) was performed. Samples were eluted with methanol and 5-LOX products including 5-HpETE, and the corresponding alcohol 5-HETE, LTB4, and all-trans-isomers of LTB4 were analysed by RP-HPLC with a C-18 Radial-PAK column (Waters, Eschborn, Germany) as described.[33]

The next data set has as its target T2, Human recombinant sEH (Homo sapiens, UniProt P34913).
T2 construct: made in house
T2 sequence (P34913 1-555): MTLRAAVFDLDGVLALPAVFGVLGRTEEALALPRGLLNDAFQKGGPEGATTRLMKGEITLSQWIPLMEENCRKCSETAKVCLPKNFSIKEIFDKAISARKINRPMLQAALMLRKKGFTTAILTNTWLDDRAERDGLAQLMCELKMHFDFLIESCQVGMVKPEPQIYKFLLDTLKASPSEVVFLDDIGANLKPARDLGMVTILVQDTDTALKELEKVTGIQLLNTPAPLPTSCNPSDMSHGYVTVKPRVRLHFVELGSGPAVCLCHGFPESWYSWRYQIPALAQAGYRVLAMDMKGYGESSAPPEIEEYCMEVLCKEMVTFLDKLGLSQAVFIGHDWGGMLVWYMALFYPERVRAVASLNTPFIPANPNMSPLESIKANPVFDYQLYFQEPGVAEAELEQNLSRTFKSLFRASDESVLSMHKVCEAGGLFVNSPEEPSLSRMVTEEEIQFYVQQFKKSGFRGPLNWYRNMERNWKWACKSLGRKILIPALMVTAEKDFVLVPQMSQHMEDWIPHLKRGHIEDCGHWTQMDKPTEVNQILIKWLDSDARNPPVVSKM
In words: sEH activity assay (PHOME fluorescence, cell-free). The class given is biochemical. The method, then: Human recombinant sEH was expressed and purified as published.[23] Isolated sEH was diluted in 25 mM Tris buffer (pH 7) containing 0.1 mg/mL BSA to a final protein concentration of 0.5 µg/mL. Preincubation with test compounds or 0.1% vehicle (DMSO) at room temperature for 10 min was followed by stimulation with 50 µM PHOME at RT for 60 min. Reactions were stopped with 200 mM ZnSO4 and fluorescence was subsequently detected at λem 465 nm and λex 330 nm. If required, possible fluorescence of the compounds was subtracted from the read-out.

On the set-up of data set [2]: method as in PMID 28218273, PMID 26882208, PMID 28839250. As to conditions: cited from earlier work.
A further data set has as its system LT biosynthesis. To be noted: cited from earlier work.
For data set [3] the following is noted: lead compound, stated without reference; cited from earlier work.
Data set [4] addresses T1, FLAP (5-LOX product formation). As to conditions: neutrophils; cited from earlier work.
Setting [5] is: read-out: sEH IC50 ± SEM, human recombinant sEH, cell-free.

On to `Cc1cc(OCc2nc3ccccc3n2C(=O)OC(C)(C)C)ccc1NC(=S)Nc1ccc(Cl)c(Cl)c1` [Compound 5d, tert-butyl 2-((4-(3-(3,4-dichlorophenyl)thioureido)-3-methylphenoxy)methyl)-1H-benzo[d]imidazole-1-carboxylate], for which the melting point was 172 °C. Also, in data set [1], the “FLAP activity (in words)” value is “Inactive” and the IC50 was over 10000 nM. At Human recombinant sEH, the “sEH activity (in words)” value was “inactive”. The IC50 on Human recombinant sEH (setting [5]) is over 10000 nM.
`Cc1cc(NC(=O)Nc2ccc(Cl)c(Cl)c2)ccc1OCc1nc2ccccc2n1C(=O)OC(C)(C)C` [Compound 5c, tert-butyl-2-((4-(3-(3,4-dichlorophenyl)ureido)-2-methylphenoxy)methyl)-1H-benzo[d]imidazole-1-carboxylate] yielded a melting point of 145 to 146 °C. In addition, in data set [1], the IC50 is over 10000 nM. For the same molecule, the IC50 on Human recombinant sEH amounted to 0.7 ± 0.1 nM.
`Cc1cc(OCc2nc3ccccc3n2C(=O)OC(C)(C)C)ccc1NC(=O)Nc1ccc(Cl)c(Cl)c1` [Compound 5a, tert-butyl-2-((4-(3-(3,4-dichlorophenyl)ureido)-3-methylphenoxy)methyl)-1H-benzo[d]imidazole-1-carboxylate] showed a melting point of 261 to 263 °C. In data set [1], the IC50 was found to be 3700 ± 900 nM. Besides, the IC50 on Human recombinant sEH was 0.7 ± 0.1 nM.
For `Cc1cc(NC(=S)Nc2ccc(Cl)c(Cl)c2)ccc1OCc1nc2ccccc2[nH]1` [Compound 6f, 1-(4-((1H-benzo[d]imidazol-2-yl)methoxy)-3-methylphenyl)-3-(3,4-dichlorophenyl)thiourea], in that order: 167 to 168 °C, 750 ± 170 nM and 772 ± 169 nM.
The corresponding values for `S=C(Nc1ccc(OCc2nc3ccccc3[nH]2)cc1)Nc1ccc(Cl)c(Cl)c1` [Compound 6e, 1-(4-((1H-benzo[d]imidazol-2-yl)methoxy)phenyl)-3-(3,4-dichlorophenyl)thiourea] are 160 to 162 °C, 500 ± 100 nM and 271 ± 58.4 nM.
`CC(C)(C)OC(=O)n1c(COc2ccc(NC(=O)Nc3ccc(Cl)c(Cl)c3)cc2)nc2ccccc21` [Compound 5b, tert-butyl 2-((4-(3-(3,4-dichlorophenyl)ureido)phenoxy)methyl)-1H-benzo[d]imidazole-1-carboxylate] returned a melting point of 262 to 264 °C. For the same molecule, in data set [1], the IC50 was over 10000 nM. The IC50 on Human recombinant sEH came to 0.63 ± 0.1 nM.
With `Cc1cc(NC(=S)Nc2ccc(Cl)c(Cl)c2)ccc1OCc1nc2ccccc2n1C(=O)OC(C)(C)C` [Compound 5f, tert-butyl 2-((4–(3-(3,4-dichlorophenyl)thioureido)-2-methylphenoxy)methyl)-1H-benzo[d]imidazole-1-carboxylate], the melting point was 169 to 172 °C. For the same molecule, the IC50 in data set [1] is over 10000 nM. The IC50 on Human recombinant sEH is 17.5 ± 12.7 nM.
For `O=C(Nc1ccc(OCc2nc3ccccc3[nH]2)cc1)Nc1ccc(Cl)c(Cl)c1` [Compound 6b, 1-(4-((1H-benzo[d]imidazol-2-yl)methoxy)phenyl)-3-(3,4-dichlorophenyl)urea], in that order: 272 °C, 600 ± 100 nM and 10.5 ± 1.9 nM.
With `Cc1cc(OCc2nc3ccccc3[nH]2)ccc1NC(=O)Nc1ccc(Cl)c(Cl)c1` [Compound 6a, 1-(4-((1H-benzo[d]imidazol-2-yl)methoxy)-2-methylphenyl)-3-(3,4-dichlorophenyl)urea], the melting point lay within 245 to 246 °C. Also, the IC50 in data set [1] stood at 700 ± 100 nM. In addition, at Human recombinant sEH (setting [5]), the IC50 was determined as 56.9 ± 19.4 nM.
Take `Cc1cc(OCc2nc3ccccc3[nH]2)ccc1NC(=S)Nc1ccc(Cl)c(Cl)c1` [Compound 6d, 1-(4-((1H-benzo[d]imidazol-2-yl)methoxy)-2-methylphenyl)-3-(3,4-dichlorophenyl)thiourea]: the melting point was in the range of 122 to 124 °C. In addition, the half-maximal inhibitory concentration (IC50) in data set [1] was found to be 600 ± 100 nM. The IC50 on Human recombinant sEH is 223 ± 85.8 nM.
The molecule `CC(C)(C)OC(=O)n1c(COc2ccc(NC(=S)Nc3ccc(Cl)c(Cl)c3)cc2)nc2ccccc21` [Compound 5e, tert-butyl 2-((4-(3-(3,4-dichlorophenyl)thioureido)phenoxy)methyl)-1H-benzo[d]imidazole-1-carboxylate] gave a melting point of 165 to 167 °C. In addition, in data set [1], the IC50 is over 10000 nM. The IC50 on Human recombinant sEH came to 19.1 ± 7.2 nM.
For `Cc1cc(OCc2nc3ccccc3s2)ccc1NC(=O)Nc1ccc(Cl)c(Cl)c1` [Diflapolin], the acute cytotoxicity result in data set [2] was “no acute cytotoxicity”. For the same molecule, in the data set on LT biosynthesis, the “LT biosynthesis in vivo” value is on record as “efficiently inhibits LT biosynthesis in vivo”. The “anti-inflammatory activity in mouse” value in the data set with LT biosynthesis (mouse) is given as “strong anti-inflammatory activity”. The solubility entry in data set [3] is given as “poor solubility”.
Molecule `Cc1cc(NC(=O)Nc2ccc(Cl)c(Cl)c2)ccc1OCc1nc2ccccc2[nH]1` [Compound 6c, 1-(4-((1H-benzo[d]imidazol-2-yl)methoxy)-3-methylphenyl)-3-(3,4-dichlorophenyl)urea] showed a melting point of 228 to 230 °C. Also, the IC50 in data set [1] is 400 ± 10 nM. In addition, the IC50 at Human recombinant sEH is 4.9 ± 1 nM.
Regarding `CC(C)c1ccc2c(c1)c(SC(C)(C)C)c(CC(C)(C)C(=O)O)n2Cc1ccc(Cl)cc1` [MK-886], the IC50 in data set [4] is 10 to 14 nM.

As a reminder, the melting point is the temperature, or range, at which the solid turns liquid. Usually IC50 stands for the midpoint of a concentration-inhibition curve.
